Experimental data taken from patent US20040167217A1, “Neuroprotective effects of polyphenolic compounds” (priority 2003, published 2004).

Tests used:
heme oxygenase = assay: Heme oxygenase activity assay in astrocytes; assay type: cell-based
Experimental: Type 1 astrocytes (DI TNC1) were purchased from the American Type Culture Collection (Manassas, VA) and cultured in Dulbecco's modified Eagle's medium containing 4.5 g/l glucose, 2 mM glutamine, 100 units/ ml penicillin, and 0.1 mg/ml streptomycin and supplemented with 10% fetal bovine serum. Cells were grown in 75-cm^2 flasks and maintained at 37° C. in a humidified atmosphere of air and 5% CO2. Confluent cells were exposed to various concentrations of curcumin, CAPE, or Curcumin-95. After each treatment (6 or 24 h), cells were harvested for the determination of heme oxygenase activity, HO-1 protein expression, and intracellular glutathione. Astrocytes growing in 24 wells were exposed to polyphenolic compounds, and cell viability was determined at 24 h. Heme oxygenase activity was determined at the end of each treatment as described previously by Foresti, et al.^18 and Motterlini, et al.^19 Briefly, microsomes from harvested cells were added to a reaction mixture containing NADPH, glucose-6-phosphate dehydrogenase, rat liver cytosol as a source of biliverdin reductase, and the substrate hemin. The reaction mixture was incubated in the dark at 37° C. for 1 h and was terminated by the addition of 1 ml of chloroform. After vigorous vortex and centrifugation, the extracted bilirubin in the chloroform layer was measured by the difference in absorbance between 464 and 530 nm (ε=40 mM^−1cm^−1).

Male Wistar rats [1] = assay: Brain lipid peroxides (FOX2) after T-BuOOH; assay type: in vivo, rat
Experimental: Male Wistar rats, weighing 140-180 g, were used for all experiments. Ten animals per experimental group were pre-administrated with curcumin, suitably suspended in distilled water, at the dose of 50 mg/kg per day, through oral intubation, for 7 days, before an intracerebroventricular injection of T-butylhydroperoxide (T-BuOOH) 2 μl of a 70% solution of phosphate buffered saline (PBS)^16. Lethality was assessed after administration of T-BuOOH at time points: 0, 2, 6, 12, and 24 h, and was expressed as the percentage of survival relative to the lethality observed in T-BuOOH plus Tween/saline vehicle (control) treated animals (FIG. 11A). […]
Briefly, brain areas were dissected and homogenized in ice cold 0.1 M, pH 7.5 phosphate buffer (final vol 1.1 ml). […] Hydroperoxides were quantitated by the FOX2 method^17. […] After centrifugation at 12,000×g for 5 min to remove any flocculated material, absorbance of the supernatant was then read at 560 nm.
(§1) Male Wistar rats, weighing 140-180 g, were used for all experiments. […] Lethality was assessed after administration of T-BuOOH at time points: 0, 2, 6, 12, and 24 h, and was expressed as the percentage of survival relative to the lethality observed in T-BuOOH plus Tween/saline vehicle (control) treated animals (FIG. 12A). […]

Male Wistar rats [2] = assay: Lethality after intracerebroventricular T-BuOOH; assay type: in vivo, rat
Experimental: Male Wistar rats, weighing 140-180 g, were used for all experiments. Ten animals per experimental group were pre-administrated with curcumin, suitably suspended in distilled water, at the dose of 50 mg/kg per day, through oral intubation, for 7 days, before an intracerebroventricular injection of T-butylhydroperoxide (T-BuOOH) 2 μl of a 70% solution of phosphate buffered saline (PBS)^16. Lethality was assessed after administration of T-BuOOH at time points: 0, 2, 6, 12, and 24 h, and was expressed as the percentage of survival relative to the lethality observed in T-BuOOH plus Tween/saline vehicle (control) treated animals (FIG. 11A). After 30h the surviving animals were sacrificed and their brains quickly removed to investigate lipid peroxide formation as an index of oxidative challenge in neurons.
as §1

[3] = tested on: Type 1 astrocytes (DI TNC1); assay: Cell viability of astrocytes, Alamar Blue; assay type: cell-based; settings: 24 h; for cytotoxic action in the presence of NAC: 1 mM NAC, curcumin 100 μM, CAPE 50 μM and 100 μM; for cell viability and cell morphology: concentration not exceeding 30 μM
Experimental: Type 1 astrocytes (DI TNC1) were purchased from the American Type Culture Collection (Manassas, VA) and cultured in Dulbecco's modified Eagle's medium containing 4.5 g/l glucose, 2 mM glutamine, 100 units/ ml penicillin, and 0.1 mg/ml streptomycin and supplemented with 10% fetal bovine serum. Cells were grown in 75-cm^2 flasks and maintained at 37° C. in a humidified atmosphere of air and 5% CO2. Confluent cells were exposed to various concentrations of curcumin, CAPE, or Curcumin-95. After each treatment (6 or 24 h), cells were harvested for the determination of heme oxygenase activity, HO-1 protein expression, and intracellular glutathione. Astrocytes growing in 24 wells were exposed to polyphenolic compounds, and cell viability was determined at 24 h. Astrocytes were exposed to curcumin or CAPE for the indicated times, and cell viability was assessed with the use of an Alamar Blue assay according to manufacturer's instructions (Serotec; Oxford, UK) as reported previously^11. At the end of each treatment, cells were washed twice and incubated for an additional 5 h in complete medium containing 1% Alamar Blue solution. Optical density in each sample was measured using a plate reader (Molecular Devices; Crawley, UK). The intensity of the color developed in the medium is proportional to the viability of cells, which is calculated as the difference in absorbance between 570 and 600 nm and expressed as percentage of control.

[4] = high concentrations (50 and 100 μM)

Row | SMILES | concentration of maximal enzyme activation (heme oxygenase) | enzyme activation and protein expression at 100 μM compared with 30 μM (heme oxygenase; 100 μM) | heme oxygenase activity (heme oxygenase; [4]) | heme oxygenase activity (heme oxygenase; low concentrations 15-50 μM) | lipid peroxides in brain areas (oxidative damage) (Male Wistar rats [1]; 20 mg/kg per day oral for 7 days before T-BuOOH) | protection against T-BuOOH induced lethality (Male Wistar rats [2]; 20 mg/kg per day oral for 7 days before i.c.v. T-BuOOH) | reduction in cell viability ([3]; 50 μM) | reduction in cell viability ([3]; 100 μM) | cytotoxic action in the presence of NAC [3] | cell viability and cell morphology [3] | increase in heme oxygenase activity (heme oxygenase; 6 h, 15 μM) | increase in heme oxygenase activity (heme oxygenase; 6 h, 30 μM) | heme oxygenase activity (heme oxygenase; 6 h, 30 μM (control 247±5)) | heme oxygenase activity (heme oxygenase; 6 h, 30 μM plus 1 mM NAC) | heme oxygenase activity (heme oxygenase; 6 h, 50 μM, absence of NAC) | heme oxygenase activity (heme oxygenase; 6 h, 50 μM, presence of 1 mM NAC) | effect of NAC on the increase in heme oxygenase activity (heme oxygenase; 6 h, 15 and 30 μM, 1 mM NAC) | elevation in heme oxygenase activity (heme oxygenase; higher concentrations (50-100 μM)) | lipid peroxides in brain areas (oxidative damage) (Male Wistar rats [1]; 50 mg/kg per day oral for 7 days before T-BuOOH, cortex, striatum, hippocampus, cerebellum) | animals that died after T-BuOOH (Male Wistar rats [2]; 50 mg/kg per day oral for 7 days before i.c.v. T-BuOOH, over 24 h (T-BuOOH alone 60%))
1 | O=C(/C=C/c1ccc(O)c(O)c1)OCCc1ccccc1 [CAPE, Caffeic acid phenethyl ester] | 30 µM | significantly less effective | unable to stimulate an increase in heme oxygenase activity | substantial increase | prevented oxidative damages to neuronal tissues | marked protection | 61% | 78% | significantly attenuated the cytotoxic action | fully preserved | – | – | – | – | – | – | – | – | – | –
2 | COc1cc(C=CC(=O)CC(=O)C=Cc2ccc(O)c(OC)c2)ccc1O [curcumin, 1,7-bis[4-Hydroxy-3-methoxyphenyl]-1,6-heptadiene-3,5-dione] | – | – | unable to stimulate an increase in heme oxygenase activity | – | – | – | 20% | 63% | significantly attenuated the cytotoxic action | fully preserved | 7.4 fold | 9.1 fold | 2461±194 pmol of bilirubin/mg of protein/h | 2392±22 pmol of bilirubin/mg of protein/h | 492±30 pmol of bilirubin/mg of protein/h | 752±78 pmol of bilirubin/mg of protein/h | not significantly affected by the presence of NAC | 1.9 fold | prevented the oxidative damages to neuronal tissues | 20%
